Results: patent publication US11464825B2, “Adiponectin peptidomimetics for treating ocular disorders” (Allysta Pharmaceuticals, Inc., priority 2015, dated 2022)
Primed or numbered codes have the meaning given here. Where no end group is shown, it is not given here. [ ]: non-standard residue; d: D form. Dab′ = 2,3-diamino butyric acid; Nva = CCC[C@H](N)C(=O)O

What was measured:
[1] = test system: experimental dry eye (EDE) mice; test: Corneal fluorescein staining score in experimental dry eye (EDE) mice; format: in vivo, C57BL/6 mice; settings: 0.01% in BSS, 3 times a day; for corneal staining (corneal irregularity) compared to untreated EDE mice: topical bilateral 2 μl/eye, score 0-4 averaged over five regions, day 5 and day 10, p-value <0.05 vs. EDE; for corneal surfaces compared to untreated normal mice (UT) and positive control globular adiponectin-treated mice (gAdipo): topical, EDE mice
Protocol: (§1) Experimental dry eye (EDE) was induced in 8-week old female C57BL/6 mice by subcutaneous injection of 0.5 mg/0.2 mL scopolamine hydrobromide (Sigma-Aldrich, St. Louis, Mo.) three times a day (9 AM, 1:30 PM and 6 PM). A dose of 0.3 mL scopolamine hydrobromide was administered at each injection. The mice were also exposed to an air draft and 30% ambient humidity. 6 experimental groups used in this study included: (1) untreated control mice (UT; no dry eye treatment and no topical treatment); (2) untreated EDE control mice (EDE; received no topical administration); (3) EDE control mice received a balanced salt solution (BSS); (4) EDE mice received 0.01% single chain adiponectin peptidomimetic (ADP355) in BSS; (5) EDE mice receiving 0.01% peptide dimer adiponectin peptidomimetic (ADP399) in BSS; and (6) EDE mice receiving 0.01% recombinant globular adiponectin (gAdipo) in BSS. Each group included 5 mice. EDE mice treated with BSS received topical bilateral administration of […], 3 times a day. EDE mice treated with ADP355 received topical bilateral administration of 2 μl/eye, 3 times a day. EDE mice treated with ADP-399 received topical bilateral administration of 2 μl/eye, 3 times a day. The gAdipo treated mice served as a positive treatment control. Mice were evaluated at baseline, day 5 and day 10 after the treatment initiation. In some experiments, ADP355, ADP-399 and gAdipo were resuspended in 0.01% BSA.
The severity of corneal epithelial damage was evaluated by corneal fluorescein staining. Briefly, 1% fluorescein dye (1 μl) was instilled into the eye and then the eye was washed with saline. 10 minutes after application of the dye, the eye was photographed with a slip lamp microscope using a cobalt blue light. The stained area was graded using a scoring system by two blinded observers. […] The average score from the five regions was recorded. […] In addition, the adiponectin peptidomimetic-treated mice (ADP355 and ADP-399) had corneal surfaces that were similar to those of untreated normal mice (UT) and positive control globular adiponectin-treated mice (gAdipo). The corneal surface scores in all groups at day 10 were similar to those at day 5 after treatment initiation.

[2] = test system: experimental dry eye (EDE) mice; test: Tear volume by phenol red thread tear test in experimental dry eye (EDE) mice; format: in vivo, C57BL/6 mice; settings: 0.01% in BSS, 3 times a day; for tear production, as measured by tear volume, compared to untreated or BSS treated EDE mice: topical bilateral 2 μl/eye, day 5 and day 10 after treatment initiation, p-value <0.05 vs. EDE; for difference in tear volume among those treated with ADP355, ADP399 and globular adiponectin: topical, EDE mice
Protocol: as §1
Tear volume was measured using a phenol red thread tear test. Briefly, a cotton thread treated with phenol red at its tip (Zone-Quick; Oasis, Glendora, Calif.) was held with jeweler's forceps and placed in the tear meniscus of the lateral canthus for 20 secs to contact tear fluid. Using a microscope, the length of the red portion (wet portion) of the thread was measured in millimeters. A standard curve was derived to convert the distance measurement into tear volume.

| Substance | corneal staining (corneal irregularity) compared to untreated EDE mice [1] | corneal surfaces compared to untreated normal mice (UT) and positive control globular adiponectin-treated mice (gAdipo) [1] | tear production, as measured by tear volume, compared to untreated or BSS treated EDE mice [2] | difference in tear volume among those treated with ADP355, ADP399 and globular adiponectin [2] |
| --- | --- | --- | --- | --- |
| DAsn-Ile-Pro-Nva-Leu-Tyr-DSer-Phe-Ala-DSer-NH2 ([dN]IP[Nva]LY[dS]FA[dS]-NH2; N-terminus assumed; SMILES CCC[C@H](NC(=O)[C@@H]1CCCN1C(=O)[C@@H](NC(=O)[C@H](N)CC(N)=O)[C@@H](C)CC)C(=O)N[C@@H](CC(C)C)C(=O)N[C@@H](Cc1ccc(O)cc1)C(=O)N[C@H](CO)C(=O)N[C@@H](Cc1ccccc1)C(=O)N[C@@H](C)C(=O)N[C@H](CO)C(N)=O) [ADP355, single chain adiponectin peptidomimetic] | less corneal staining | similar | higher | no significant difference |
| (DAsn-Ile-Pro-Nva-Leu-Tyr-DSer-Phe-Ala-DSer-His-Pro)2-Dab-NH2 ([dN]IP[Nva]LY[dS]FA[dS]HP[Dab′]-NH2; also: branched dimer: two chains joined via Dab) [ADP399, linear branched dimer of ADP355] | less corneal staining | similar | higher | no significant difference |
